Measurements as given in US20020187945A1, “Modulation of immune response by ribavirin” (priority 1999, published 2002).

Assays:
B7-1 [1] = assay: B7-1 expression by FACS in lymph node cells from DNFB-primed mice, in vitro anti-αβ TCR challenge; assay type: cell-based, mouse; conditions: C57BL/6 lymph node cells, ribavirin 5 μM, FIG. 3 bottom panel
Description: (§1) The effect of ribavirin on B7-1 expression and B7-2 expression, at the time of challenge, in lymph node cells isolated from Ag-primed BALBc and C57BL/6 mice was examined. Mice were primed epicutaneously with dinitrofluorobenzene (DNFB) 6 days prior to concomitant ribavirin treatment (5 μM) and in vitro challenge using an immobilized anti-αβ TCR antibody. Unexpectedly, we observed opposing effects of ribavirin on DNFB-induced B7-1 expression and B7-2 expression in these two mouse strains.

B7-2 [2] = assay: B7-2 expression by FACS in lymph node cells from DNFB-primed mice, in vitro anti-αβ TCR challenge; assay type: cell-based, mouse; conditions: BALB/c lymph node cells, ribavirin 5 μM, FIG. 3 top panel
Description: as §1

BALB/c and C57BL/6 mice = assay: Contact hypersensitivity (CHS) ear response to DNFB in mice; assay type: in vivo, mouse; conditions: 0.5 mg/kg i.p. at challenge, 24 hours after challenge, FIG. 4
Description: The functional effect of this differential effect on B7-1 and B7-2 mediated by RIB was examined in an in vivo murine model of contact hypersensitivity, and a B7-2 dependent immune response (Eur. J. Immunol, 1996. 26: 880-885). Briefly, animals were primed with 2,4-dinitro-1-fluorobenzene (DNFB) (0.3%) epicutaneously on the abdomen and challenged 6 days later on each ear with 0.12% DNFB. Ribavirin-treated animals were injected intraperitoneally at the time of challenge with an optimal dose of 0.5 mg/kg in 50 μl PBS. Ear measurements were taken before challenge and 24 hours after challenge. Response to DNFB was expressed as the difference between the two ear measurements. […] Ear responses in BALB/c mice were augmented following ribavirin (RIB) treatment but were impaired in ribavirin-treated C57BL/6 mice.

B7-1 mRNA = B7-1 mRNA (RT-PCR/Southern) in lymph node cells of ribavirin-treated CHS mice; assay type: in vivo, mouse; conditions: FIG. 5
Description: (§2) To determine the effect of ribavirin on the functional role of B7-1 and B7-2 on contact hypersensitivity (CHS) responses, we measured B7-1 and B7-2 mRNA levels in RNA isolated from the lymph node cells of the animals used in the above CHS experiments. Following RT-PCR with specific primers, electrophoresis and Southern blotting, PCR products were analyzed by hybridization with 32P-labeled specific probes. […] In contrast, in C57BL/6 mice, B7-1 mRNA expression was enhanced by ribavirin, but B7-2 mRNA expression was unaffected.

B7-2 mRNA = B7-2 mRNA (RT-PCR/Southern) in lymph node cells of ribavirin-treated CHS mice; assay type: in vivo, mouse; conditions: FIG. 5
Description: as §2

B7-1 [3] = assay: B7-1 expression by FACS in IFNα-treated splenocytes from unstimulated mice; assay type: cell-based, mouse; conditions: C57BL/6 splenocytes, with IFNα, FIG. 6 bottom panel
Text: (§3) We determined the levels of […] and B7-2 by FACS analysis from IFNα-treated splenocytes from unstimulated BALB/c and C57B6 mice in order to determine whether the effect of ribavirin on the functional role of B7-1 and […] was a) inducible in resting, unstimulated lymphocytes, b) required the action of a B7 inducer such as IFNα, or c) elicited the same affects on the two mouse strains upon replacing antigen stimulation with a B7 inducer. […] In contrast, in C57BL/6 splenocytes (bottom panel), IFNα-induced B7-1 expression was enhanced by ribavirin but B7-2 expression was unaffected.

B7-2 [4] = assay: B7-2 expression by FACS in IFNα-treated splenocytes from unstimulated mice; assay type: cell-based, mouse; conditions: with IFNα
Text: as §3

B7-1 [5] = assay: B7-1 mRNA (RT-PCR) in human PBMCs with B7-inducing cytokines; assay type: cell-based
Text: (§4) The differential effect by ribavirin on B7-1 and B7-2 expression as observed in the two mouse strains was examined in human peripheral blood mononuclear cells (PBMCs). Here we used three cytokines, IFNα, IFNβ, and TNFα to induce B7-1 and B7-2 expression. […] Two distinct outcomes were observed.

B7-2 [6] = assay: B7-2 mRNA (RT-PCR) in human PBMCs with B7-inducing cytokines; assay type: cell-based
Text: as §4

IL-10 = IL-10 levels in human PBMCs with B7-inducing cytokines; assay type: cell-based
Text: as §4

TNFα = TNFα levels in human PBMCs with B7-inducing cytokines; assay type: cell-based
Text: as §4

[7] = BALB/c mice of the CHS experiment
[8] = C57BL/6 mice of the CHS experiment
[9] = 24 hour incubation with B7-inducing cytokines, FIG. 7 right hand panel (B)
[10] = 24 hour incubation with IFNα, IFNβ or TNFα, FIG. 7 left panel (A)

**Q.** `NC(=O)c1ncn([C@@H]2O[C@H](CO)[C@@H](O)[C@H]2O)n1` [ribavirin, 1-β-D-Ribofuranosyl-1,2,4-Triazole-3-Carboxamide] was tested. Which “B7-1 expression (mean channel fluorescence)” value (B7-1 [1]) did it give?
**A.** enhanced B7-1 expression

**Q.** And the “B7-2 expression (mean channel fluorescence)” value (B7-2 [2])?
**A.** enhanced B7-2 expression

**Q.** And the “Inflammatory ear response to DNFB” value (BALB/c and C57BL/6 mice; BALB/c mice)?
**A.** augmented

**Q.** And the “Inflammatory ear response to DNFB” value (BALB/c and C57BL/6 mice; C57BL/6 mice)?
**A.** impaired

**Q.** And the “B7-1 mRNA expression in lymph node cells” value (B7-1 mRNA; [7])?
**A.** unaffected

**Q.** What about the “B7-1 mRNA expression in lymph node cells” value (B7-1 mRNA; [8]) of the same compound?
**A.** enhanced

**Q.** And the “B7-2 mRNA expression in lymph node cells” value (B7-2 mRNA; [7])?
**A.** augmented

**Q.** What about the “B7-2 mRNA expression in lymph node cells” value (B7-2 mRNA; [8]) of the same compound?
**A.** unaffected

**Q.** What about the “IFNα-induced B7-1 expression” value (B7-1 [3]) of the same compound?
**A.** enhanced

**Q.** And the “IFNα-induced B7-2 expression” value (B7-2 [4]; BALB/c splenocytes, FIG. 6 top panel)?
**A.** augmented

**Q.** What about the “IFNα-induced B7-2 expression” value (B7-2 [4]; C57BL/6 splenocytes, FIG. 6 bottom panel) of the same compound?
**A.** unaffected

**Q.** What about the B7-1 expression (B7-1 [5]; [9]) of the same compound?
**A.** decreased B7-1 expression

**Q.** What about the “B7-1 mRNA expression” value (B7-1 [5]; [10]) of the same compound?
**A.** increased

**Q.** And the B7-2 expression (B7-2 [6]; [9])?
**A.** increased B7-2 expression

**Q.** And the B7-2 expression (B7-2 [6]; [10])?
**A.** decreased

**Q.** What about the IL-10 levels (IL-10; [9]) of the same compound?
**A.** dropped

**Q.** And the IL-10 (IL-10; [10])?
**A.** concomitant increase

**Q.** And the TNFα levels (TNFα; [9])?
**A.** increased

**Q.** And the TNFα (TNFα; [10])?
**A.** concomitant decrease
